Assay results as given in patent publication US20210205638A1, “PARATHYROID HORMONE AND REGENERATION OF DEGENERATIVE DISCS DISEASE” (THE JOHNS HOPKINS UNIVERSITY, priority 2017, published 2021).

Legend:
[1] = molecular target: T1, PTH1R (Mus musculus, UniProt P41593); assay: Primary cilia visualization and co-localization in NP cells; assay type: cell-based
T1 construct: endogenous in cells; host or cells: primary mouse nucleus pulposus (NP) cells isolated from intervertebral discs of 15-day old male mice
T1 sequence (P41593 27-591): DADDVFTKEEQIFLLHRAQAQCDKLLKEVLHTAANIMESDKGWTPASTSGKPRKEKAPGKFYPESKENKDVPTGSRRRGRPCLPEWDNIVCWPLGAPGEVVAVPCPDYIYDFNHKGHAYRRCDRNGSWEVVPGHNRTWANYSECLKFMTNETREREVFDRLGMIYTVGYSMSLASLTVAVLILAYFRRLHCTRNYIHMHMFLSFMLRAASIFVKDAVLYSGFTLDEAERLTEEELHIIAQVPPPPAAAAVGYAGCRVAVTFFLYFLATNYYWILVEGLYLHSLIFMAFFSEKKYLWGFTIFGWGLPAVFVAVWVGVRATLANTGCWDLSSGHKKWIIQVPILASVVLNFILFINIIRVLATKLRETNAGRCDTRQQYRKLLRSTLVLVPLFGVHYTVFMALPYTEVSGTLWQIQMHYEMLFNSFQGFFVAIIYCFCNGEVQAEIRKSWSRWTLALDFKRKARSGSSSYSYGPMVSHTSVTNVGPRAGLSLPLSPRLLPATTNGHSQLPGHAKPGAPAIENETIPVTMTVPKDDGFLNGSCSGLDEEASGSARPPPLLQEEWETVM
Procedure: The localization of PTH signaling components within NP cells was investigated through immunocytochemistry after 48 hours of serum starvation (DMEM, 0.5% FBS, 1% P/S). Cells were treated with PTH (recombinant human PTH, […], Bachem Calif., Inc. King of Prussia, Pa., USA.) or shear stress (1 dyn/cm^2) with times of exposure for 30 minutes, fixed and stained for acetylated α-tubulin of primary cilia, PTH1R (Abcam, 1:100) and pCREP (Abcam, 1:500). Coverslips were mounted with Fluoroshield-DAPI. All cells were imaged using a Zeiss LSM710 META Confocal Laser Scanning microscope fitted with a 63× objective. Region of interest were selected manually using ImageJ software. The intensity profiles along the cilia have been performed by tracing a line across the length of the primary cilia and measuring intensity along this line using ImageJ software. Average intensities in the ciliary region, were measured on at least 30 ciliated cells per condition.

[2] = system: NP cells; assay: Western blot of pCREB in cultured NP cells; assay type: cell-based, mouse
Procedure: Green fluorescent protein (GFP) labeled NP cells of notochordal origin were isolated from 15-day old Noto^Cre/+::ROSA26-lacZ^flox/flox male mice as previously described. The NP cells from 15-day old PTH1R^+/+ and PTH1R^−/−, IFT88^+/+ and IFT88^−/− male mice. Briefly, the cells were isolated from the NP region of IVDs in the spinal column from mid thoracic to lower lumbar region and digested initially with TrypLE Express (Gibco) for 30 minutes on shaker, followed by 0.25 mg/ml Collagense-P (Roche) for another […] at 37° C. The digested cells were washed twice with PBS, and cultured in α-MEM (Gibco) supplemented with 10% fetal calf serum (Atlanta Biologicals), and 1% penicillin—streptomycin (Mediatech) to 80-90% confluence at 37° C., 5% CO2 and 5% O2.
Western blot analyses were conducted on the protein lysates from in vitro cultured NP cells or NP tissues from mice at specific time points after PTH (1-34) treatment and human at different ages with lumbar disc degeneration. The protein extract was centrifuged, the concentration of supernatant evaluated by DC protein assay (Bio-Rad Laboratories), and then separated by SDS-PAGE and blotted on a polyvinylidene fluoride membrane (Bio-Rad Laboratories). Following incubation in specific antibodies, we detected proteins using an enhanced chemiluminescence kit (Amersham Biosciences). […]

[3] = system: 18-month-old mice; assay: iPTH in aged mice: PPCT of IVD and L4 trabecular bone; assay type: in vivo, mouse; settings: for IVD morphology: aged mice
Procedure: For the dosage screening experiments, 17 month old male C57BL/6J WT mice were assigned into four groups treated with different doses of PTH or vehicle; 20 μg/kg/d, 40 μg/kg/d and 80 μg/kg/d of human PTH (1-34) (Bachem Calif., Inc. King of Prussia, Pa., USA.) or vehicle groups. We chose the optimal dosage of PTH (1-34) for the rest of the experiment.
Propagation phase contrast micro-tomography (PPCT) based on the Synchrotron radiation scanning was performed at the BL13W1 biomedical beamline in the Shanghai Synchrotron Radiation Facility (SSRF) in China (FIG. 7A). To obtain high X-ray attenuation contrast images, the monochromatic X-ray energy was adjusted to 15 keV, the scanner was set at a voltage of 15 keV, exposure time set to 2.5 s, and the sample-to-detector distance (SDD) adjusted to 30 cm and a resolution of 3.7 μm per pixel. The images were reconstructed and analyzed using the GPU-CT-Reconstruction software (applied by the BL13W1 experimental station) and the VG Studio Max 3D software (version 2.1, Volume Graphics GmbH, Germany) respectively. The region of interest was defined to cover the whole L3-L4 compartment. The 3D quantitative analysis of IVDs was performed with the commercially available Image Pro Analyzer 3D software (Version 7.0, Media Cybernetics, Inc., USA). The 3D structural parameters analyzed for the mean height and volume and thickness distribution of IVDs. The trabecular bone of L4 was segmented from the bone marrow and analyzed to determine the trabecular bone volume fraction (BV/TV), trabecular thickness (Tb. Th), trabecular number (Tb. N) and trabecular separation (Tb. Sp).

[4] = knockdown of pallidin with siRNA
[5] = 18-month-old mice relative to vehicle, 40 μg/kg
[6] = 18-month-old mice, L4 trabecular bone

## CC[C@H](C)[C@H](NC(=O)[C@H](CCC(=O)O)NC(=O)[C@H](CO)NC(=O)[C@@H](NC(=O)[C@@H](N)CO)C(C)C)C(=O)N[C@@H](CCC(N)=O)C(=O)N[C@@H](CC(C)C)C(=O)N[C@@H](CCSC)C(=O)N[C@@H](Cc1cnc[nH]1)C(=O)N[C@@H](CC(N)=O)C(=O)N[C@@H](CC(C)C)C(=O)NCC(=O)N[C@@H](CCCCN)C(=O)N[C@@H](Cc1cnc[nH]1)C(=O)N[C@@H](CC(C)C)C(=O)N[C@@H](CC(N)=O)C(=O)N[C@@H](CO)C(=O)N[C@@H](CCSC)C(=O)N[C@@H](CCC(=O)O)C(=O)N[C@@H](CCCN=C(N)N)C(=O)N[C@H](C(=O)N[C@@H](CCC(=O)O)C(=O)N[C@@H](Cc1c[nH]c2ccccc12)C(=O)N[C@@H](CC(C)C)C(=O)N[C@@H](CCCN=C(N)N)C(=O)N[C@@H](CCCCN)C(=O)N[C@@H](CCCCN)C(=O)N[C@@H](CC(C)C)C(=O)N[C@@H](CCC(N)=O)C(=O)N[C@@H](CC(=O)O)C(=O)N[C@H](C(=O)N[C@@H](Cc1cnc[nH]1)C(=O)N[C@@H](CC(N)=O)C(=O)N[C@@H](Cc1ccccc1)C(=O)O)C(C)C)C(C)C [PTH (1-34), teriparatide]
[1]
  start of translocation of PTH1R to cilia: 10 min
  translocation of PTH1R to cilia: stimulated translocation of PTH1R to cilia significantly
[1]; co-immunostaining with acetylated tubulin
  pCREB in cilia: increased
[1]; [4]
  PTH-enhanced transport of PTH1R to cilia: blocked
[2]; at 30 min
  phosphorylation of CREB (Western blot): induced phosphorylation of CREB
[2]; [4]
  PTH-enhanced phosphorylation of CREB: blocked
[3]; [5]
  IVD height: increased
  IVD volume: increased
[3]; [6]
  bone volume (BV/TV): increase
  connectivity (Tb. Con): increase
[3]; 18-month-old mice, especially the central area of IVD
  IVD thickness in 3D images in five different areas: significant increase
[3]; 40 μg/kg daily for eight weeks
  IVD morphology: significantly improved
[3]; 80 μg/kg daily for eight weeks
  IVD morphology: significantly improved
